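Compound exposure: 48 hours, 5 concentrations, 96-well plates. GI50: concentration for 50% inhibition of growth. TGI: total growth inhibition.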
Tests used:
Assay in all cases: NCI anticancer screen, dose series, 48 h
[1] = test system: 786-0 renal
[2] = test system: HL-60(TB) leukemia
[3] = test system: HOP-18 NSCLC
[4] = test system: LXFL 529 NSCLC
[5] = test system: DMS 273 small cell lung
[6] = test system: OVCAR-8 ovarian
[7] = test system: M14 melanoma
[8] = test system: NCI-H522 lung
[9] = test system: SK-MEL-2 melanoma
[10] = test system: HOP-62 NSCLC
[11] = test system: RXF 393 renal
[12] = test system: A549 NSCLC
[13] = test system: SNB-75 CNS
[14] = test system: SK-MEL-5 melanoma
[15] = test system: LOX IMVI melanoma
[16] = test system: MOLT-4 leukemia
[17] = test system: SNB-19 CNS
[18] = test system: COLO 205 colon
[19] = test system: SK-OV-3 ovarian
[20] = test system: MALME-3M melanoma
[21] = test system: KM12 colon
[22] = test system: SW-620 colon
[23] = test system: KM20L2 colon
[24] = test system: CAKI-1 renal
[25] = test system: OVCAR-4 ovarian
[26] = test system: SF-268 CNS
[27] = test system: SK-MEL-28 melanoma
[28] = test system: A498 renal
[29] = test system: ACHN renal
[30] = test system: DMS 114 small cell lung
[31] = test system: UACC-257 melanoma
[32] = test system: K-562 leukemia
[33] = test system: UO-31 renal
[34] = test system: NCI-H460 lung
[35] = test system: OVCAR-3 ovarian
[36] = test system: NCI-H226 lung
[37] = test system: EKVX NSCLC
[38] = test system: SR leukemia
[39] = test system: TK-10 renal
[40] = test system: IGROV1 ovarian
[41] = test system: HCT-116 colon
[42] = test system: SN12C renal
[43] = test system: DLD-1 colon
[44] = test system: CCRF-CEM leukemia
[45] = test system: UACC-62 melanoma
[46] = test system: HCT-15 colon
[47] = test system: HOP-92 NSCLC
[48] = test system: RPMI-8226 leukemia
[49] = test system: NCI-H23 lung
[50] = test system: U251 CNS
[51] = test system: HT29 colon
[52] = test system: M19-MEL melanoma
[53] = test system: SF-295 CNS
[54] = test system: SF-539 CNS
[55] = test system: HCC-2998 colon
[56] = test system: SNB-78 CNS
[57] = test system: OVCAR-5 ovarian

## CCOC(=O)CNC(=O)C(CSC(=O)N(C)O)NC(=O)CCC(N)C(=O)O (stereo unspecified)
[1]
  GI50: > 2000 µM
  TGI: > 2000 µM
[2]
  GI50: > 2000 µM
  TGI: > 2000 µM
[3]
  GI50: > 2000 µM
  TGI: > 2000 µM
[4]
  GI50: > 2000 µM
  TGI: > 2000 µM
[5]
  GI50: > 2000 µM
[6]
  GI50: > 2000 µM
  TGI: > 2000 µM
[7]
  GI50: > 2000 µM
  TGI: > 2000 µM
[8]
  GI50: > 2000 µM
  TGI: > 2000 µM
[9]
  GI50: > 2000 µM
  TGI: > 2000 µM
[10]
  GI50: > 2000 µM
  TGI: > 2000 µM
[11]
  GI50: > 2000 µM
  TGI: > 2000 µM
[12]
  GI50: > 2000 µM
  TGI: > 2000 µM
[13]
  GI50: > 2000 µM
  TGI: > 2000 µM
[14]
  GI50: > 2000 µM
  TGI: > 2000 µM
[15]
  GI50: > 2000 µM
[16]
  GI50: > 2000 µM
  TGI: > 2000 µM
[17]
  GI50: > 2000 µM
  TGI: > 2000 µM
[18]
  GI50: > 2000 µM
[19]
  GI50: > 2000 µM
  TGI: > 2000 µM
[20]
  GI50: > 2000 µM
  TGI: > 2000 µM
[21]
  GI50: > 2000 µM
  TGI: > 2000 µM
[22]
  GI50: > 2000 µM
  TGI: > 2000 µM
[23]
  GI50: > 2000 µM
  TGI: > 2000 µM
[24]
  GI50: > 2000 µM
  TGI: > 2000 µM
[25]
  GI50: > 2000 µM
  TGI: > 2000 µM
[26]
  GI50: > 2000 µM
  TGI: > 2000 µM
[27]
  GI50: > 2000 µM
  TGI: > 2000 µM
[28]
  GI50: > 2000 µM
  TGI: > 2000 µM
[29]
  GI50: > 2000 µM
  TGI: > 2000 µM
[30]
  GI50: > 2000 µM
[31]
  GI50: > 2000 µM
  TGI: > 2000 µM
[32]
  GI50: > 2000 µM
  TGI: > 2000 µM
[33]
  GI50: > 2000 µM
  TGI: > 2000 µM
[34]
  GI50: > 2000 µM
  TGI: > 2000 µM
[35]
  GI50: > 2000 µM
  TGI: > 2000 µM
[36]
  GI50: > 2000 µM
  TGI: > 2000 µM
[37]
  GI50: > 2000 µM
  TGI: > 2000 µM
[38]
  TGI: 1.02 µM
[39]
  GI50: > 2000 µM
  TGI: > 2000 µM
[40]
  GI50: > 2000 µM
  TGI: > 2000 µM
[41]
  GI50: > 2000 µM
[42]
  GI50: > 2000 µM
  TGI: > 2000 µM
[43]
  GI50: > 2000 µM
[44]
  GI50: > 2000 µM
[45]
  GI50: > 2000 µM
  TGI: > 2000 µM
[46]
  GI50: > 2000 µM
  TGI: > 2000 µM
[47]
  GI50: > 2000 µM
  TGI: > 2000 µM
[48]
  GI50: > 2000 µM
  TGI: > 2000 µM
[49]
  GI50: > 2000 µM
  TGI: > 2000 µM
[50]
  GI50: > 2000 µM
  TGI: > 2000 µM
[51]
  GI50: > 2000 µM
[52]
  GI50: > 2000 µM
  TGI: > 2000 µM

## O=C1C=C(Nc2ccccc2C(=O)CC(=O)C(=O)Nc2ccc(Cl)c(Cl)c2)c2ccccc2C1=O
[1]
  TGI: > 100 µM
[53]
  TGI: > 100 µM
[6]
  TGI: > 100 µM
[7]
  TGI: > 100 µM
[8]
  TGI: 54.5 µM
[9]
  TGI: > 100 µM
[10]
  TGI: > 100 µM
[54]
  TGI: > 100 µM
[11]
  TGI: > 100 µM
[12]
  TGI: > 100 µM
[14]
  TGI: 20.4 µM
[16]
  TGI: > 100 µM
[17]
  TGI: > 100 µM
[18]
  TGI: > 100 µM
[19]
  TGI: > 100 µM
[20]
  TGI: 29.8 µM
[21]
  TGI: > 100 µM
[24]
  TGI: > 100 µM
[25]
  TGI: > 100 µM
[26]
  TGI: > 100 µM
[27]
  TGI: 37.4 µM
[28]
  TGI: > 100 µM
[29]
  TGI: > 100 µM
[30]
  TGI: 66.7 µM
[31]
  TGI: 47.6 µM
[32]
  TGI: > 100 µM
[33]
  TGI: > 100 µM
[34]
  TGI: > 100 µM
[35]
  TGI: > 100 µM
[36]
  TGI: > 100 µM
[55]
  TGI: > 100 µM
[38]
  TGI: > 100 µM
[56]
  TGI: > 100 µM
[40]
  TGI: > 100 µM
[42]
  TGI: > 100 µM
[43]
  TGI: > 100 µM
[44]
  TGI: > 100 µM
[45]
  TGI: 62.2 µM
[57]
  TGI: > 100 µM
[46]
  TGI: > 100 µM
[47]
  TGI: > 100 µM
[48]
  TGI: > 100 µM
[49]
  TGI: > 100 µM
[50]
  TGI: > 100 µM
[51]
  TGI: > 100 µM
[52]
  TGI: 8.96 µM

Reference: PubChem BioAssay (NCI)
